Assay results: patent US8410130B2, “Synthesis of 8H-3A-aza-cyclopenta [A ]indenes and 5,10-dihydropyrrolo[1,2-B]isoquinolines derivatives and their use as antitumor therapeutic agents” (Academia Sinica, priority 2007, dated 2013)
Like-named read-outs stand apart in the source and are kept apart here.

Legend:
[1] = tested on: CCRF-CEM/VBL; assay: In vitro cytotoxicity, XTT assay, vinblastine resistant subline; format: cell-based, human; details: for IC50: XTT assay, 72-hr incubation; for fold of cross-resistant, CCRF-CEM/VBL vs IC50 of the parent cell line: numbers in brackets
Excerpt: (§1) Human colon carcinoma HCT-116 cells, human prostate adenocarcinoma PC-3 and adenocarcinoma SK-OV-3 cells were obtained from American Type Culture Collection (ATCC, Rockville, Md.). Human mammary carcinoma (MX-1) tumor cells were obtained from MSKCC cell bank. The CCRF-CEM human lymphoblastic leukemia cells and their vinblastine resistant subline (CCRF-CEM/VBL, 680-fold resistance in vitro) were obtained from Dr. William Beck of the University of Illinois, Chicago, and CCRF-CEM/Taxol (330-fold resistance in vitro). Resistant cells CCRF-CEM/taxol were produced by exposing the parent cells to increasing sublethal concentration (IC50-IC90) of paclitaxel for six months.
(§2) In preparation for in vitro cytotoxicity assays, cells were cultured at an initial density 2-5×10^4 cells per milliliter. They were maintained in a 5% CO2-humidified atmosphere at 37° C. in RPMI medium 1640 (GIBCO/BRL) containing penicillin (100 units/mL), streptomycin (100 μg/mL, GIBCO/BRL), and 5% heat-inactivated FBS. For cells grown in suspension (such as CCRF-CEM and its sublines), cytotoxicity was measured, by using XTT microculture method in 96-well microtiter plates (Scudiero D A et al., Cancer Res. 1988, 48, 4827-4833). For solid tumor cells growing in a monolayer (such as MX-1 and HCT-116), cytotoxicity of the drug was determined, in duplicate, in 96-well microtiter plates by using the sulforhodamine B method (Skehan P et al., J. Natl. Cancer Inst 1990, 82, 1107-1112). For both methods, the absorbance of each well was measured with a microplate reader (Power Wave XS, Bio-Tek, Winooski, Vt.) after 72-hr incubation as described previously (Chou T-C et al., Proc. Natl. Acad. Sci. USA 2001, 98, 8113-8118). Dose-effect relationship data from 6 to 7 concentrations of each drug, in duplicate, were analyzed by using a computer program (Chou T-C et al., ComboSyn, Inc., Paramus, N J. 2005) based on the median-effect principle and plot (Chou T-C et al., Adv. Enzyme Regul. 1984, 22, 27-55; Chou T-C, Pharmacol. Rev. 2006, 58, 621-681).
(§3) The IC50 is defined by the concentration required to inhibit tumor cell growth by 50%. […] The growth inhibition of the compounds disclosed herein against human lymphoblastic leukemic cells (CCRF-CEM) and its drug-resistant sublines (resistant to vinblastine and taxol, CCRF-CEM/VBL and CCRF-CEM/taxol, respectively) is also shown in Table 5. […] Thus, the compounds disclosed herein are effective against multiple drug resistant tumors.

[2] = tested on: CCRF-CEM/Taxol; assay: In vitro cytotoxicity, XTT assay, taxol resistant subline; format: cell-based, human; details: for IC50: XTT assay, 72-hr incubation; for fold of cross-resistant, CCRF-CEM/Taxol vs IC50 of the parent cell line: numbers in brackets
Excerpt: as §1, §2, §3

[3] = tested on: Human colon carcinoma HCT-116 cells; assay: In vitro cytotoxicity, sulforhodamine B (SRB) assay; format: cell-based
Excerpt: as §1, §2, §3

[4] = tested on: Human mammary carcinoma (MX-1) tumor cells; assay: as above; format: cell-based; details: 72-hr incubation
Excerpt: as §1, §2, §3

[5] = tested on: CCRF-CEM human lymphoblastic leukemia cells; assay: In vitro cytotoxicity, XTT assay, 72-hr incubation; format: cell-based
Excerpt: as §1, §2, §3

[6] = Homo sapiens, HCT-116, 72-hr incubation

SMILES	IC50 ([1]; Homo sapiens, CCRF-CEM) [nM]	fold of cross-resistant, CCRF-CEM/VBL vs IC50 of the parent cell line [1]	IC50 ([2]; Homo sapiens, CCRF-CEM) [nM]	fold of cross-resistant, CCRF-CEM/Taxol vs IC50 of the parent cell line [2]	IC50 [3, 6] [nM]	IC50 ([4]; Homo sapiens) [nM]	IC50 ([5]; Homo sapiens, CCRF-CEM) [nM]	IC50 [1] [nM]	IC50 [2] [nM]	IC50 ([3]; 72-hr incubation) [nM]	IC50 [4] [nM]	IC50 [5] [nM]
OCc1c(CO)c(-c2ccc(Cl)cc2)n2c1Cc1ccccc1-2 [DA-1003, (3-(4-Chlorophenyl)-2-hydroxymethyl-8H-3a-aza-cyclopenta[a]inden-1-yl)methanol]	2530	[0.59x]	4220	[1.00x]	5590	6130	4270					
COc1ccc(-c2c(CO)c(CO)c3n2-c2ccccc2C3)cc1 [DA-1005, (2-Hydroxymethyl-3-(4-methoxyphenyl)-8H-3a-aza-cyclopenta[a]inden-1-yl)methanol]	1670	[1.4x]	1660	[1.4x]	5830	10800	1160					
OCc1c(CO)c(-c2ccccc2)n2c1Cc1ccccc1-2 [DA-1011, (2-hydroxymethyl-3-phenyl-8H-3a-azacyclopenta[a]inden-1-yl)-methanol]	213	[0.85x]	224	[0.89x]	1850	1350	252					
CNC(=O)OCc1c(COC(=O)NC)c(-c2ccccc2)n2c1Cc1ccccc1-2 [DA-1022, Methylcarbamic acid 2-methylcarbamoyloxymethyl-3-phenyl-8H-3a-aza-cyclopenta[a] inden-1-ylmethylester]	1620	[4.5x]	556	[1.6x]	761	5920	357					
OCc1c(CO)c(-c2ccc(F)cc2)n2c1Cc1ccccc1-2 [DA-1024, (3-(4-Flourophenyl)-2-hydroxymethyl-8H-3a-aza-cyclopenta[a]inden-1-yl)methanol]		[0.96x]		[2.6x]				4070	11000	8070	22300	4250
OCc1c(CO)c(-c2ccc(F)c(F)c2)n2c1Cc1ccccc1-2 [DA-1025, (3-(3,4-Diflourophenyl)-2-hydroxymethyl-8H-3a-aza-cyclopenta[a]inden-1-yl)methanol]		[1.98x]		[1.6x]				7270	7780	10800	7000	4910
CNC(=O)OCc1c(COC(=O)NC)c(-c2ccc(F)cc2)n2c1Cc1ccccc1-2 [DA-1026, Methylcarbamic acid 3-(4-flourophenyl)-2-methylcarbamoyloxymethyl-8H-3a-aza-cyclopenta[a]inden-1-ylmethyl ester]		[2.2x]		[2.1x]				307	284	397	744	137
CNC(=O)OCc1c(COC(=O)NC)c(-c2ccc(F)c(F)c2)n2c1Cc1ccccc1-2 [DA-1027, Methylcarbamic acid 3-(3,4-diflourophenyl)-2-methylcarbamoyloxymethyl-8H-3a-aza-cyclopenta[a]inden-1-ylmethyl ester]		[0.99x]		[1.0x]				632	644	878	7840	639
COc1ccc(-c2c(CO)c(CO)c3n2-c2ccccc2C3)cc1OC [DA-1097, (3-(3,4-Dimethoxyphenyl)-2-hydroxymethyl-8H-3a-aza-cyclopenta[a]inden-1-yl)methanol]	1140	[1.1x]	1950	[1.87x]	4090	11100	1040					
CNC(=O)OCc1c(COC(=O)NC)c2n(c1C)-c1ccccc1C2 [DA-1100, methyl carbamic acid 3-methyl-2-methylcarbamoyloxymethyl-8H-3a-aza-cyclopenta[a]inden-1-yl methyl ester]	126	[0.67x]	67	[0.36x]	297	355	188					
CCc1c(COC(=O)NC)c(COC(=O)NC)c2n1-c1ccccc1C2 [DA-1101, methyl carbamic acid 3-ethyl-2-methyl carbamoyloxymethyl-8H-3a-aza-cyclopenta[a]inden-1-ylmethyl ester]	78	[1.15x]	99	[1.46x]	707	670	68					
COc1ccc(-c2c(CO)c(CO)c3n2Cc2ccccc2C3)cc1 [DA-1106, [2-Hydroxymethyl-3-(4-methoxyphenyl)-5,10-dihydropyrrolo[1,2-b]isoquinolin-1-yl]methanol]	111	[0.49x]	232	[1.02x]	1030	1940	228					
CNC(=O)OCc1c(COC(=O)NC)c2n(c1C)Cc1ccccc1C2 [DA-1108, methylcarbamic acid 3-methyl-1-methylcarbamoyloxymethyl-5,10-dihydro-pyrrolo[1,2-b]isoquinolin-2-ylmethyl ester]	76	[0.59x]	111	[0.87x]	1160	1680	128					
CNC(=O)OCc1c(COC(=O)NC)c(-c2ccc(OC)cc2)n2c1Cc1ccccc1C2 [DA-1109, methylcarbamic acid 3-(4-methoxyphenyl)-2-methylcarbamoyloxymethyl-5,10-dihydr-pyrrolo[1,2-b]isoquinolin-1-ylmethyl ester]		[0.60x]		[0.88x]				111	161	1110	1310	184
OCc1c(CO)c(-c2ccc(F)c(F)c2)n2c1Cc1ccccc1C2 [DA-1112, [3-(3,4-Difluorophenyl)-2-hydroxymethyl-5,10-dihydropyrrolo[1,2-b]isoquinolin-1-yl]methanol]	1010	[0.89x]	745	[0.66x]	2920	6670	1140					
